In patent US10519177B2, “Heterocyclic compounds and uses thereof” (Plexxikon Inc., priority 2013, dated 2019):

Key:
BRD4-BD12 (1-477) = BRD4-BD12 (1-477) (Homo sapiens (Human), UniProt O60885); test: Alphascreen binding assay BRD4-BD12; conditions: BRD4(1 2) H4; read-out: Biochemical activity (IC50 μM) BRD4(1 2) H4
Outline: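 In this competition format, compounds displace a biotinylated tetra-acetyl H4 peptide from E. coli-expressed human BRD4 bromodomain constructs captured on nickel chelate beads. The reaction runs at pH 7.5 with 2 mM DTT and detergent for 1 h at room temperature before a 30 min bead step.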

MV-4-11 cells = test: Oncology cell growth assay MV-4-11 (CellTiter Glo); assay type: cell-based; conditions: Homo sapiens, MV4-11, 72 h; MV-4-11, 3d growth; read-out: Cell activity (IC50 μM) MV-4-11 3d-Growth
Outline: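 Growth read by CellTiter Glo luminescence after 72 h compound treatment of MLL-AF4-bearing MV-4-11 cells (3000/well). Titration: 8 points, 1:3 steps, maximum 10 μM, 0.2% DMSO final. Data normalized to DMSO wells, four-parameter fit gives pIC50.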

Compound	IC50 (BRD4-BD12 (1-477))	IC50 (MV-4-11 cells)
Cc1noc(C)c1-c1ccc2c(-c3ccc(CC(=O)O)cc3)cn([C@@H](C)c3ccccn3)c2c1 [P-1031, 2-[4-[6-(3,5-dimethylisoxazol-4-yl)-1-[(1S)-1-(2-pyridyl)ethyl]indol-3-yl]phenyl]acetic acid]	< 1 µM	< 1 µM
COC(=O)Cc1ccc(-c2cn(C(c3ccccc3)c3ccccn3)c3cc(-c4c(C)noc4C)cnc23)cc1 (centres unmarked) [P-0902, methyl 2-[4-[6-(3,5-dimethylisoxazol-4-yl)-1-[phenyl(2-pyridyl)methyl]pyrrolo[3,2-b]pyridin-3-yl]phenyl]acetate]	< 1 µM	< 1 µM
Cc1noc(C)c1-c1cnc2c(I)cn(Cc3ccncc3)c2c1 [P-0935, 4-[3-iodo-1-(4-pyridylmethyl)pyrrolo[3,2-b]pyridin-6-yl]-3,5-dimethyl-isoxazole]	< 1 µM	< 1 µM
COC(=O)c1ccc(-c2cn(C(c3ccccn3)C3CCOCC3)c3cc(-c4c(C)noc4C)cnc23)cc1 (centres unmarked) [P-1035, methyl 4-[6-(3,5-dimethylisoxazol-4-yl)-1-[2-pyridyl(tetrahydropyran-4-yl)methyl]pyrrolo[3,2-b]pyridin-3-yl]benzoate]	< 1 µM	< 1 µM
Cc1noc(C)c1-c1cnc2c(-c3ccc(C(=O)O)cc3)cn(Cc3ccc(F)cn3)c2c1 [P-0917, 4-[6-(3,5-dimethylisoxazol-4-yl)-1-[(5-fluoro-2-pyridyl)methyl]pyrrolo[3,2-b]pyridin-3-yl]benzoic acid]	< 1 µM	< 1 µM
COC(=O)c1ccc(-c2cn([C@H](c3ccccn3)C3CC3)c3cc(-c4c(C)noc4C)cnc23)cc1 [P-0989, methyl 4-[1-[(S)-cyclopropyl(2-pyridyl)methyl]-6-(3,5-dimethylisoxazol-4-yl)pyrrolo[3,2-b]pyridin-3-yl]benzoate]	< 1 µM	< 1 µM
Cc1noc(C)c1-c1ccc2c(-c3ccc(C(=O)O)cc3)cn(C(c3ccccc3)c3ccccn3)c2c1 (centres unmarked) [P-0992, 4-[6-(3,5-dimethylisoxazol-4-yl)-1-[phenyl(2-pyridyl)methyl]indol-3-yl]benzoic acid]	< 1 µM	< 1 µM
COC(=O)c1ccc(-c2cn(Cc3ccncc3)c3cc(-c4c(C)noc4C)cnc23)cc1 [P-0936, methyl 4-[6-(3,5-dimethylisoxazol-4-yl)-1-(4-pyridylmethyl)pyrrolo[3,2-b]pyridin-3-yl]benzoate]	< 1 µM	< 1 µM
Cc1noc(C)c1-c1cnc2c(-c3ccc(CC(=O)O)cc3)cn(C(c3ccccn3)C3CCCCC3)c2c1 (centres unmarked) [P-1018, 2-[4-[1-[cyclohexyl(2-pyridyl)methyl]-6-(3,5-dimethylisoxazol-4-yl)pyrrolo[3,2-b]pyridin-3-yl]phenyl]acetic acid]	< 1 µM	< 1 µM
Cc1ccc(-c2cn([C@@H](C)c3ccccn3)c3cc(-c4c(C)noc4C)cnc23)cc1C(=O)O [P-0999, 5-[6-(3,5-dimethylisoxazol-4-yl)-1-[(1S)-1-(2-pyridyl)ethyl]pyrrolo[3,2-b]pyridin-3-yl]-2-methyl-benzoic acid]	< 1 µM	< 1 µM
Cc1noc(C)c1-c1cnc2c(-c3ccc(C(=O)O)cc3)cn(Cc3ccccc3C#N)c2c1 [P-0923, 4-[1-[(2-cyanophenyl)methyl]-6-(3,5-dimethylisoxazol-4-yl)pyrrolo[3,2-b]pyridin-3-yl]benzoic acid]	< 1 µM	< 1 µM
COC(=O)Cc1ccc(-c2cn(C(c3ccccn3)C3CCCC3)c3cc(-c4c(C)noc4C)cnc23)cc1 (centres unmarked) [P-0994, methyl 2-[4-[1-[cyclopentyl(2-pyridyl)methyl]-6-(3,5-dimethylisoxazol-4-yl)pyrrolo[3,2-b]pyridin-3-yl]phenyl]acetate]	< 1 µM	< 1 µM
CC[C@@H](c1ccccn1)n1cc(-c2ccc(C(=O)O)c(C)c2)c2ncc(-c3c(C)noc3C)cc21 [P-1026, 4-[6-(3,5-dimethylisoxazol-4-yl)-1-[(1S)-1-(2-pyridyl)propyl]pyrrolo[3,2-b]pyridin-3-yl]-2-methyl-benzoic acid]	< 1 µM	< 1 µM
CNS(=O)(=O)c1cccc(-c2cn([C@@H](C)c3ccccn3)c3cc(-c4c(C)noc4C)cnc23)c1 [P-0980, 3-[6-(3,5-dimethylisoxazol-4-yl)-1-[(1S)-1-(2-pyridyl)ethyl]pyrrolo[3,2-b]pyridin-3-yl]-N-methyl-benzenesulfonamide]	< 1 µM	< 1 µM
COc1cc(-c2cn([C@@H](C)c3ccccn3)c3cc(-c4c(C)noc4C)cnc23)ccc1C(=O)O [P-0938, 4-[6-(3,5-dimethylisoxazol-4-yl)-1-[(1S)-1-(2-pyridyl)ethyl]pyrrolo[3,2-b]pyridin-3-yl]-2-methoxy-benzoic acid]	< 1 µM	< 1 µM
COC(=O)c1ccc(-c2cn(C(c3ccccn3)C3CCCCC3)c3cc(-c4c(C)noc4C)cnc23)cc1 (centres unmarked) [P-1016, methyl 4-[1-[cyclohexyl(2-pyridyl)methyl]-6-(3,5-dimethylisoxazol-4-yl)pyrrolo[3,2-b]pyridin-3-yl]benzoate]	< 1 µM	< 1 µM

Compound	IC50 (BRD4-BD12 (1-477))	IC50 (MV-4-11 cells)
CC[C@@H](c1ccccn1)n1cc(I)c2ncc(-c3c(C)noc3C)cc21 [P-0963, 4-[3-iodo-1-[(1S)-1-(2-pyridyl)propyl]pyrrolo[3,2-b]pyridin-6-yl]-3,5-dimethyl-isoxazole]	< 1 µM	< 1 µM
COC(=O)c1ccc(-c2cn(Cc3ccc(F)cn3)c3cc(-c4c(C)noc4C)cnc23)cc1 [P-0918, methyl 4-[6-(3,5-dimethylisoxazol-4-yl)-1-[(5-fluoro-2-pyridyl)methyl]pyrrolo[3,2-b]pyridin-3-yl]benzoate]	< 1 µM	< 1 µM
COC(=O)c1ccc(-c2cn(Cc3ccccc3)c3cc(-c4c(C)noc4C)cnc23)cc1 [P-0919, methyl 4-[1-benzyl-6-(3,5-dimethylisoxazol-4-yl)pyrrolo[3,2-b]pyridin-3-yl]benzoate]	< 1 µM	< 1 µM
Cc1noc(C)c1-c1cnc2c(-c3ccc(C(=O)O)cc3)cn(C(c3ccccn3)C3CCCCC3)c2c1 (centres unmarked) [P-1014, 4-[1-[cyclohexyl(2-pyridyl)methyl]-6-(3,5-dimethylisoxazol-4-yl)pyrrolo[3,2-b]pyridin-3-yl]benzoic acid]	< 1 µM	< 1 µM
COc1cc(-c2cn(Cc3ccccn3)c3cc(-c4c(C)noc4C)cnc23)ccc1C(=O)O [P-0953, 4-[6-(3,5-dimethylisoxazol-4-yl)-1-(2-pyridylmethyl)pyrrolo[3,2-b]pyridin-3-yl]-2-methoxy-benzoic acid]	< 1 µM	< 1 µM
Cc1noc(C)c1-c1cnc2c(-c3ccc(C(C)(C)C(=O)O)cc3)cn([C@@H](C)c3ccccn3)c2c1 [P-1021, 2-[4-[6-(3,5-dimethylisoxazol-4-yl)-1-[(1S)-1-(2-pyridyl)ethyl]pyrrolo[3,2-b]pyridin-3-yl]phenyl]-2-methyl-propanoic acid]	< 1 µM	< 1 µM
COC(=O)c1ccc(-c2cn(Cc3cccc(OC)n3)c3cc(-c4c(C)noc4C)cnc23)cc1 [P-0930, methyl 4-[6-(3,5-dimethylisoxazol-4-yl)-1-[(6-methoxy-2-pyridyl)methyl]pyrrolo[3,2-b]pyridin-3-yl]benzoate]	< 1 µM	1 to 10 µM
COC(=O)c1ccc(-c2cn(C(c3ccccn3)C3CCCC3)c3cc(-c4c(C)noc4C)cnc23)cc1 (centres unmarked) [P-0993, methyl 4-[1-[cyclopentyl(2-pyridyl)methyl]-6-(3,5-dimethylisoxazol-4-yl)pyrrolo[3,2-b]pyridin-3-yl]benzoate]	< 1 µM	< 1 µM
Cc1noc(C)c1-c1ccc2c(I)cn(C(c3ccccc3)c3ccccn3)c2c1 (centres unmarked) [P-0991, 4-[3-iodo-1-[phenyl(2-pyridyl)methyl]indol-6-yl]-3,5-dimethyl-isoxazole]	< 1 µM	< 1 µM
Cc1noc(C)c1-c1cnc2c(I)cn([C@@H](c3ccccn3)C3CC3)c2c1 [P-0985, 4-[1-[(R)-cyclopropyl(2-pyridyl)methyl]-3-iodo-pyrrolo[3,2-b]pyridin-6-yl]-3,5-dimethyl-isoxazole]	< 1 µM	< 1 µM
Cc1noc(C)c1-c1cnc2c(I)cn(C(c3ccccn3)C3CCCC3)c2c1 (centres unmarked) [P-0997, 4-[1-[cyclopentyl(2-pyridyl)methyl]-3-iodo-pyrrolo[3,2-b]pyridin-6-yl]-3,5-dimethyl-isoxazole]	< 1 µM	< 1 µM
CC[C@H](c1ccccn1)n1cc(-c2ccc(CC(=O)OC)cc2)c2ncc(-c3c(C)noc3C)cc21 [P-0961, methyl 2-[4-[6-(3,5-dimethylisoxazol-4-yl)-1-[(1R)-1-(2-pyridyl)propyl]pyrrolo[3,2-b]pyridin-3-yl]phenyl]acetate]	< 1 µM	< 1 µM
CC[C@H](c1ccccn1)n1cc(-c2ccc(C(=O)O)cc2)c2ncc(-c3c(C)noc3C)cc21 [P-0960, 4-[6-(3,5-dimethylisoxazol-4-yl)-1-[(1R)-1-(2-pyridyl)propyl]pyrrolo[3,2-b]pyridin-3-yl]benzoic acid]	< 1 µM	< 1 µM
Cc1noc(C)c1-c1cnc2c(I)cn([C@H](c3ccccn3)C3CC3)c2c1 [P-0988, 4-[1-[(S)-cyclopropyl(2-pyridyl)methyl]-3-iodo-pyrrolo[3,2-b]pyridin-6-yl]-3,5-dimethyl-isoxazole]	< 1 µM	< 1 µM
Cc1noc(C)c1-c1cnc2c(-c3ccc(C#N)nc3)cn(C(c3ccccc3)c3ccccn3)c2c1 (centres unmarked) [P-0907, 5-[6-(3,5-dimethylisoxazol-4-yl)-1-[phenyl(2-pyridyl)methyl]pyrrolo[3,2-b]pyridin-3-yl]pyridine-2-carbonitrile]	< 1 µM	< 1 µM
